Assay results: patent publication US20110201084A1, “ENZYMATIC HYDROLYSIS OF CELLULOSIC BIOMASS THROUGH ENHANCED REMOVAL OF OLIGOMERS” (THE REGENTS OF THE UNIVERSITY OF CALIFORNIA, priority 2008, published 2011)

What was measured:
[1] = tested on: cellulase; experiment: Effect of xylose oligomer chain length on Avicel glucan initial hydrolysis rate; format: biochemical
Excerpt: FIG. 9 depicts the effect of xylose oligomer chain length on Avicel glucan initial hydrolysis rate at a cellulase loading of thirty FPU/g glucan and CBU to FPU activity ration of two.
Furthermore, these xylooligomers have been found in the liquor from pretreatment prior to enzymatic hydrolysis, with the amounts depending upon the type of pretreatment, substrate, and substrate loading. Furthermore, such xylooligomers can slow glucose and xylose release. […] In accordance with an aspect of the disclosure, 12.5 mg/ml (eighty mM xylose equivalent) of xylose, 6.6 mg/ml (forty-six mM xylose equivalent) and 16.6 mg/ml (one-hundred seventeen mM xylose equivalent) of xylobiose, and 6.6 mg/ml (forty-eight mM xylose equivalent) of xylotriose were added to two ml centrifuge tubes containing thirty mg of commercial grade cellulose in 1.5 ml of liquid at a cellulase loading of thirty FPU/g glucan, and initial hydrolysis rates were measured. Xylose alone at this concentration inhibited yields by about ten percent, but about half as much xylobiose, forty-six mM of xylose equivalent, reduced glucose release by eighteen percent. Furthermore, glucose release dropped by about thirty-two percent at a higher xylobiose loading of one-hundred seventeen mM of xylose equivalent. Adding almost half of the xylose concentration and about the same as the lower concentration of xylobiose, xylotriose (forty-eight mM xylose equivalent) reduced glucose release even more, by about twenty-four percent.

[2] = tested on: cellulase; experiment: Hydrolysis of Avicel cellulose with added birch wood xylan, xylose and β-xylosidase; format: biochemical; conditions: xylose equivalent to 1% (w/v) xylan mixed with Avicel; 7.5 FPU/g glucan; 4 h rate
Procedure: Avicel+xylan−1% (w/v) each, Avicel+xylose−xylose equivalent to 1% (w/v) xylan. b-xylosidase loading was 28 mg/g glucan. Error bars represent the standard deviation.
Hydrolysis of one percent (w/w) commercial grade cellulose with an equal mass of birch wood xylan [approximately eighty-six percent xylan] was performed in triplicate at a cellulase plus β-glucosidase loading of 16.1 mg/glucan. Hydrolysis was also performed at a similar cellulase loading but supplemented with β-xylosidase at a loading of 14 mg/g glucan. To evaluate the effect of xylose alone on cellulose hydrolysis, cellulose containing an equivalent amount of xylose (1.053*amount of xylan) was enzymatically hydrolyzed in parallel. Controlled experiments for cellulose hydrolysis without xylan, cellulose with β-xylosidase only, and a substrate blank containing cellulose plus xylan were run in parallel. Samples were collected four, twenty-four, forty-eight, and seventy-two hours after initiation of hydrolysis and analyzed for sugars. Liquids produced by seventy-two hours of hydrolysis of samples containing xylan were post hydrolyzed to determine the amount of xylooligomers as described herein.
Referring now to FIG. 5, an aspect of the disclosure is the addition of β-xylosidase to effect hydrolysis of cellulose. […]
The concentration of xylose in the hydrolyzate was measured to be 5.5 g/l. […]

OC1OC[C@@H](O[C@@H]2OC[C@@H](O)[C@H](O)[C@H]2O)[C@H](O)[C@H]1O (some centres unmarked) [xylobiose]
reduction of glucose release (Avicel initial hydrolysis) ([1]; xylobiose 6.6 mg/ml (forty-six mM xylose equivalent), thirty FPU/g glucan): eighteen | reduction of glucose release (Avicel initial hydrolysis) ([1]; xylobiose 16.6 mg/ml (one-hundred seventeen mM xylose equivalent), thirty FPU/g glucan): about thirty-two

O=C[C@H](O)[C@@H](O)[C@H](O)CO [xylose]
reduction of glucose release (Avicel initial hydrolysis) ([1]; xylose 12.5 mg/ml (eighty mM xylose equivalent), cellulase thirty FPU/g glucan): about ten | inhibition of enzyme action [2]: 12%

OC1OC[C@@H](O[C@@H]2OC[C@@H](O[C@@H]3OC[C@@H](O)[C@H](O)[C@H]3O)[C@H](O)[C@H]2O)[C@H](O)[C@H]1O (some centres unmarked) [xylotriose]
reduction of glucose release (Avicel initial hydrolysis) ([1]; xylotriose 6.6 mg/ml (forty-eight mM xylose equivalent), thirty FPU/g glucan): about twenty-four
